Earlier results in patent US10194693B2, “Aerosol generating device” (FONTEM HOLDINGS 1 B.V., priority 2013, dated 2019).

For `CN1CCCC1c1cccnc1` (centres unmarked) [nicotine], the “time to peak increments of plasma nicotine concentration” value (smoking a cigarette) is given as no more than 10 min and the “peak increments of plasma nicotine concentration” value (smoking a single cigarette) is given as 5 to 30 ng/mL.
